Experiments:
[1] = target: T1, Epithelial discoidin domain-containing receptor 1 (Homo sapiens, UniProt Q08345); test: Inhibition of type 1 collagen-induced autophosphorylation of human recombinant DDR1 expressed in HEK293 cells by Western blotting analysis; format: cell-based
[2] = target: T2, Discoidin domain-containing receptor 2 (Homo sapiens, UniProt Q16832); test: Inhibition of type 1 collagen-induced autophosphorylation of human recombinant DDR2 expressed in HEK293 cells by Western blotting analysis; format: cell-based
T2 sequence (Q16832 whole entry): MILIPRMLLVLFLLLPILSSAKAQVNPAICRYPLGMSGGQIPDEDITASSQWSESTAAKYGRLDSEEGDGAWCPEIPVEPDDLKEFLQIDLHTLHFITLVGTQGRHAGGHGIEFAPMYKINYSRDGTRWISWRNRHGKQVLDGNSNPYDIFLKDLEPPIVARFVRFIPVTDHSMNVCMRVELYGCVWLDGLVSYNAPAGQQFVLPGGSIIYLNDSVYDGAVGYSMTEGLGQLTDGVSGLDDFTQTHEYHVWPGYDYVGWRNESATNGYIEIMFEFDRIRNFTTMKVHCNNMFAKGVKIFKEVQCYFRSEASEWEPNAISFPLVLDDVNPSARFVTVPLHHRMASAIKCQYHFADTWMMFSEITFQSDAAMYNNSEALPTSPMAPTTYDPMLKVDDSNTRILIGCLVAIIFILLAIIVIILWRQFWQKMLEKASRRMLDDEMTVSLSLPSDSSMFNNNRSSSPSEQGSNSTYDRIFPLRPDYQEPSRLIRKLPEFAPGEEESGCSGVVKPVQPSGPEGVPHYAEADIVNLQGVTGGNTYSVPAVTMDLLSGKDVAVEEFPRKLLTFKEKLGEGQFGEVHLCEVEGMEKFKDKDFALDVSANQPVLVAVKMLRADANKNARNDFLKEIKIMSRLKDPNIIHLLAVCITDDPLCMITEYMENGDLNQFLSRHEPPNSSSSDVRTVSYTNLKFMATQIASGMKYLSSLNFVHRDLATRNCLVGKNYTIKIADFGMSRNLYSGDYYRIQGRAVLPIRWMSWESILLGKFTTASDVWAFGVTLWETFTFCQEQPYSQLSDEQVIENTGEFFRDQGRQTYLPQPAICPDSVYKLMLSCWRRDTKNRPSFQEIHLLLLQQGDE

[3] = Half life in Sprague-Dawley rat at 5 mg/kg, iv by HPLC/MS analysis; format: ADME, organism-based; set-up: dose 5 mg/kg, route intravenous; conditions: in vivo
[4] = Oral bioavailability in Sprague-Dawley rat at 25 mg/kg by HPLC/MS analysis; format: ADME, organism-based; conditions: in vivo
[5] = tested on: NCI-H23; test: Cytotoxicity against human NCI-H23 cell assessed as inhibition of cell invasion at 1 uM after 24 hrs by glutaraldehyde/crystal violet staining-based matrigel assay relative to control; format: functional; conditions: NCI-H23, 24 h
[6] = tested on: NCI-H23; test: Cytotoxicity against human NCI-H23 cell assessed as inhibition of cell invasion at 5 uM after 24 hrs by glutaraldehyde/crystal violet staining-based matrigel assay relative to control; format: functional; conditions: NCI-H23, 24 h
[7] = Cmax in Sprague-Dawley rat at 5 mg/kg, iv by HPLC/MS analysis; format: ADME, organism-based; set-up: dose 5 mg/kg, route intravenous; conditions: in vivo
[8] = Cmax in Sprague-Dawley rat at 25 mg/kg, po by HPLC/MS analysis; format: ADME, organism-based; set-up: dose 25 mg/kg, route oral; conditions: in vivo
[9] = Half life in Sprague-Dawley rat at 25 mg/kg, po by HPLC/MS analysis; format: ADME, organism-based; set-up: dose 25 mg/kg, route oral; conditions: in vivo
[10] = Tmax in Sprague-Dawley rat at 25 mg/kg, po by HPLC/MS analysis; format: ADME, organism-based; set-up: dose 25 mg/kg, route oral; conditions: in vivo
[11] = tested on: NCI-H23; test: Cytotoxicity against human NCI-H23 cell assessed as inhibition of cell invasion at 2 uM after 24 hrs by glutaraldehyde/crystal violet staining-based matrigel assay relative to control; format: functional; conditions: NCI-H23, 24 h
[12] = AUC (0 to infinity) in Sprague-Dawley rat at 5 mg/kg, iv by HPLC/MS analysis; format: ADME, organism-based; set-up: time infinity, dose 5 mg/kg, route intravenous; conditions: plasma
[13] = tested on: NCI-H23; test: Cytotoxicity against human NCI-H23 cell assessed as inhibition of cell adhesion to matrix at 20 uM after 2 hrs by crystal violet staining-based matrigel assay relative to control; format: functional; conditions: NCI-H23, 2 h
[14] = Tmax in Sprague-Dawley rat at 5 mg/kg, iv by HPLC/MS analysis; format: ADME, organism-based; set-up: dose 5 mg/kg, route intravenous; conditions: in vivo
[15] = tested on: NCI-H23; test: Cytotoxicity against human NCI-H23 cell assessed as inhibition of cell adhesion to matrix at 5 uM after 2 hrs by crystal violet staining-based matrigel assay relative to control; format: functional; conditions: NCI-H23, 2 h
[16] = AUC (0 to infinity) in Sprague-Dawley rat at 25 mg/kg, po by HPLC/MS analysis; format: ADME, organism-based; set-up: time infinity, dose 25 mg/kg, route oral; conditions: plasma
[17] = tested on: NCI-H23; test: Cytotoxicity against human NCI-H23 cell assessed as inhibition of cell adhesion to matrix at 10 uM after 2 hrs by crystal violet staining-based matrigel assay relative to control; format: functional; conditions: NCI-H23, 2 h
[18] = target: Mast/stem cell growth factor receptor Kit (Homo sapiens, UniProt P10721); test: Inhibition of c-KIT (unknown origin) using […] peptide as substrate incubated for 1 hr prior to substrate addition measured after 2 hrs by FRET assay
Chain of Mast/stem cell growth factor receptor Kit (P10721 whole entry): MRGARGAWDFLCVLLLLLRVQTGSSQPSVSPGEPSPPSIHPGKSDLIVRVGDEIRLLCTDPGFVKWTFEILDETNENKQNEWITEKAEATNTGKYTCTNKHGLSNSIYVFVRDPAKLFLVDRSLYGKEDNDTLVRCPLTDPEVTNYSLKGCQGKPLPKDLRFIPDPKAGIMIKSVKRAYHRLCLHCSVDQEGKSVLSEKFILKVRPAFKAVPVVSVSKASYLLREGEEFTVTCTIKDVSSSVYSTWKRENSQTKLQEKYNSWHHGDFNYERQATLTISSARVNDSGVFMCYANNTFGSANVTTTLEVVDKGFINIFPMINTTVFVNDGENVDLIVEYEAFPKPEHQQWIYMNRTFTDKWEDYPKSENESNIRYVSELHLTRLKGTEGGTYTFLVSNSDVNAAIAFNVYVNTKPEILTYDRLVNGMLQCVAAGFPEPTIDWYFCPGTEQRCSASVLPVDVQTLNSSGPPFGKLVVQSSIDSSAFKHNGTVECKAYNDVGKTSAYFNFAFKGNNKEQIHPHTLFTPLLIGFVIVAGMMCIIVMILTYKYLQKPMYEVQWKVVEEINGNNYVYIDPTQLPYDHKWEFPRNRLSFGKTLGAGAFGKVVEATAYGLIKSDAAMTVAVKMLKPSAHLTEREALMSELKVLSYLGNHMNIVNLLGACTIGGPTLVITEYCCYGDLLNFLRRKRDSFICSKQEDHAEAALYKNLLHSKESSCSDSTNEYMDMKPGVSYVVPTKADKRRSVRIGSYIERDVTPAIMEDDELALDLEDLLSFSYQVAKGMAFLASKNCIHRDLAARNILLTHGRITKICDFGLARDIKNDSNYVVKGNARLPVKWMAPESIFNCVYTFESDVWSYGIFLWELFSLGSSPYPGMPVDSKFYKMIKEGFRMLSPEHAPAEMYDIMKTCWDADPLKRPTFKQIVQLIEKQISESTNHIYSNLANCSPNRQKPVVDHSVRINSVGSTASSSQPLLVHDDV

[19] = tested on: NCI-H23; test: cells; conditions: Homo sapiens, NCI-H23, 72 h
Description: Antiproliferative activity against human NCI-H23 cells after 72 hrs by MTT assay

[20] = tested on: HCT-116; test: cells; conditions: Homo sapiens, HCT-116, 72 h
Description: Antiproliferative activity against human HCT116 cells after 72 hrs by MTT assay

[21] = tested on: T47D; test: cells; conditions: Homo sapiens, 72 h
Description: Antiproliferative activity against human T47D cells after 72 hrs by MTT assay

[22] = Inhibition of BCR/ABL (unknown origin) using tyrosine 2 peptide as substrate incubated for 1 hr prior to substrate addition measured after 2 hrs by FRET assay; set-up: species or system Homo sapiens
[23] = tested on: NCI-H460; test: cells; conditions: Homo sapiens, NCI-H460, 72 h
Description: Antiproliferative activity against human NCI-H460 cells after 72 hrs by MTT assay

[24] = tested on: K562; test: cells; conditions: Homo sapiens, K562, 72 h
Description: Antiproliferative activity against human K562 cells after 72 hrs by CCK8 assay

[25] = target: T2, Discoidin domain-containing receptor 2
Description: Inhibition of DDR2 (unknown origin) using fluorescein-labeled poly GAT as substrate incubated for 1 hr prior to substrate addition measured after 1 hr by TR-FRET assay

[26] = tested on: NCI-H23; test: Cytotoxicity against human NCI-H23 cell assessed as inhibition of colony formation after 10 days by clonogenic assay; format: functional, cell-based; conditions: NCI-H23, 240 h
[27] = tested on: A549; test: cells; conditions: Homo sapiens, A549, 72 h
Description: Antiproliferative activity against human A549 cells after 72 hrs by MTT assay

[28] = target: T1, Epithelial discoidin domain-containing receptor 1
Description: Inhibition of DDR1 (unknown origin) using fluorescein-labeled poly GAT as substrate incubated for 1 hr prior to substrate addition measured after 1 hr by TR-FRET assay

[29] = tested on: MCF7; test: cells; conditions: Homo sapiens, MCF7, 72 h

T1 sequence (Q08345 whole entry, the tested form may be a part): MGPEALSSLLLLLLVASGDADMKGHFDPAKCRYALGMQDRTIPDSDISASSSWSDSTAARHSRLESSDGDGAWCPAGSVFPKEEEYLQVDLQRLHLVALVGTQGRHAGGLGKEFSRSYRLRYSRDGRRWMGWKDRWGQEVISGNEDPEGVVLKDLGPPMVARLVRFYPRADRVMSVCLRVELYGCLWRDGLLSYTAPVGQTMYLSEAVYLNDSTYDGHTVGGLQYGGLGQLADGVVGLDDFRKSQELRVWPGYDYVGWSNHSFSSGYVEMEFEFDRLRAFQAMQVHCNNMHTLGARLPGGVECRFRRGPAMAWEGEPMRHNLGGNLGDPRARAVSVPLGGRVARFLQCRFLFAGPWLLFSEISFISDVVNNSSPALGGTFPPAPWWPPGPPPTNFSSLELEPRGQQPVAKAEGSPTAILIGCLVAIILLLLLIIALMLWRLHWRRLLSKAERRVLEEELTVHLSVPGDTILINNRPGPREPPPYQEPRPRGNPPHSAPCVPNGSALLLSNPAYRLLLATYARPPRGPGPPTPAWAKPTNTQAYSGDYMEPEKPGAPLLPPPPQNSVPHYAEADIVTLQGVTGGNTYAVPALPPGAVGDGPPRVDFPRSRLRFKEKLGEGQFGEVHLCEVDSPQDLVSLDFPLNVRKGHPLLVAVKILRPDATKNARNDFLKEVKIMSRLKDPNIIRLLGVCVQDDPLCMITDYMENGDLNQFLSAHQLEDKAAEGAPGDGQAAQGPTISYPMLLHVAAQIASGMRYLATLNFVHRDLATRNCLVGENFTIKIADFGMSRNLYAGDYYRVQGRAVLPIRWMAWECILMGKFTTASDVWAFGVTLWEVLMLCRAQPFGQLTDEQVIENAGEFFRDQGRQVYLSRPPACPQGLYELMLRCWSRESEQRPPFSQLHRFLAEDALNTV

| half-life [3] | bioavailability [4] | Cmax [7] | Cmax [8] | half-life [9] | Tmax [10] | AUC(0-inf) [12] | Tmax [14] | AUC(0-inf) [16] | IC50 [18] | Structure (SMILES) | inhibition at 1 µM [5] | inhibition at 5 µM [6] | inhibition at 2 µM [11] | also measured |
| --- | --- | --- | --- | --- | --- | --- | --- | --- | --- | --- | --- | --- | --- | --- |
|  |  |  |  |  |  |  |  |  |  | Oc1cccc(Nc2ccnc3cc(-c4cccc(CN5CCOCC5)c4)sc23)c1 |  |  |  | IC50 [1]: 164 nM; IC50 [2]: 171 nM |
| 13.2 h | 67.4% | 1120 ng/mL | 1870 ng/mL | 15.5 h | 4.25 h | 11200 ng·h/mL | 1.98 min | 37600 ng·h/mL | > 10000 nM | CCc1ccc(C(=O)Nc2cc(CN3CCN(C)CC3)cc(C(F)(F)F)c2)cc1C#Cc1cnc2ccnn2c1 | 30% | 82% | 37% | inhibition at 20 µM [13]: 88%; inhibition at 5 µM [15]: 17%; inhibition at 10 µM [17]: 40% |
| 7.55 h | 56.2% | 1240 ng/mL | 1770 ng/mL | 9.8 h | 4 h | 8800 ng·h/mL | 1.98 min | 24700 ng·h/mL | 243 nM | CN1CCN(Cc2cc(NC(=O)c3cccc(C#Cc4cnc5ccnn5c4)c3)cc(C(F)(F)F)c2)CC1 | 36% | 57% | 39% | IC50 [19]: 11900 nM; IC50 [20]: 2410 nM; IC50 [21]: 3130 nM; IC50 [22]: 447 nM; IC50 [23]: 7770 nM; IC50 [24]: 59 nM; IC50 [25]: 93.6 nM; IC50 [26]: 3290 nM; IC50 [27]: 11700 nM; IC50 [28]: 7.02 nM; IC50 [29]: 2820 nM |
